According to paper PMC10666548, “Identification of the bacterial metabolite aerugine as potential trigger of human dopaminergic neurodegeneration” (Environment international, 2023):

Legend:
[1] = tested on: GABA neurons of C. elegans Punc-25; experiment: C. elegans GABA neuron degeneration scoring (GFP-labelled neurons); format: in vivo, Caenorhabditis elegans; conditions: 48 h exposure
Protocol: The strain BY200 Pdat-1::gfp (vtIs1), dat-1::GFP(vtls1) was kindly provided by the Blakely laboratory, Vanderbilt University Medical Center and the strain Punc-25:GFP was obtained from the Caenorhabditis Genetics Center (CGC, University of Minnesota, Minneapolis, MN, USA). The worms were maintained in nematode growth medium (NGM) plates that contain: 3 g/l NaCl, 17 g/l agar, 2.5 g/l peptone, 1 mM CaCl2, 5 mg/l cholesterol, 1 mM MgSO4, 25 mM potassium phosphate buffer (pH 6.0) with 1.25 ml nystatin and 50 mg/l streptomycin sulfate) and Escherichia coli (E. coli) OP50 strain was used as food ([Brenner, 1974]). […]
On day 2 and day 8, approximately, 20–30 worms per treatment were picked onto slides prepped with a 3% agarose pad, anesthetized with 5 μl of 3 mM levamisole hydrochloride ([Sulston et al., 1975]) and observed under an Olympus BX41 fluorescence microscope to determine morphology status according to novel Likert-like scale of degeneration as previously described ([Benedetto et al., 2010]).
Fig. 5. […] They were exposed to different aerugine concentrations and counted every 24 h. […] Differences on a given day were analyzed by ANOVA and found to be non-significant. […] The GFP-labelled neurons of 20–30 worms per condition were analyzed and scored for specific neurodegeneration. […] These scores were assessed to quantify the dopaminergic neurodegeneration caused be aerugine in vivo. […]

[2] = tested on: Mixed central nervous system neurons (CNS.4U); experiment: iPSC-derived neuron viability, calcein-AM & H-33342 imaging; format: cell-based, human; conditions: 24 h, at higher concentrations than LUHMES
Protocol: Commercial preparation of iPSC-derived neurons (Cortex.4U and CNS.4U) were handled and used as described by the manufacturer (nCardia). In brief, plates were coated with 10 μg/ml PLO, 10 μg/ml laminin and 10 μg/ml fibronectin. Cells were thawed and immediately seeded onto 96-well plates in their respective culture media (Cortex.4U: Cortex.4U™ culture medium with Cortex.4U™ supplement; CNS.4U: Neuro.4U Basal Medium [Ax-M-NBM250] with Neuro-Supplement 2 [Ax-M-DCS-DA]) to be used in neurite outgrowth assays.
The assays were performed as described previously ([Hoelting et al., 2016]; [Klima et al., 2021]; [Krug et al., 2013]). In brief, 30′000 cells per well were seeded on d2 (LUHMES) / d0 (peripheral neurons, Cortex.4U, CNS.4U) in their respective differentiation media into standard pre-coated 96-well plates. They were incubated for 1 h at 37 °C and 5% CO2 before treatment. 24 h after treatment the Calcein/Hoechst readout was performed.
Neurite area (NA) and viability (V) were assessed as described previously ([Stiegler et al., 2011]). In brief, cells were stained with 1 μM calcein-AM and 1 μg/ml H-33342 for 30 min at 37 °C and 5% CO2. Image acquisition was performed using an Array-Scan VTI HCS Reader (Cellomics, PA, USA) equipped with a Hamamatsu ORCA-ER camera. 10 fields per well were imaged with 2 channels at 20x magnification (2×2 pixel binning). Excitation/emission wavelengths of 365 ± 50/535 ± 45 nm were used for Hoechst detection in channel 1 and 474 ± 40/535 ± 45 nm were used for calcein detection in channel 2.

5HT2B receptor = tested on: 5HT2B receptor; set-up: method as in Lin et al., 2017; conditions: ref Lin et al., 2017; cited from earlier work
d3 LUHMES cells = experiment: Aerugine toxicity in glucose vs galactose medium; format: cell-based, human
Protocol: Ückert et al. (2023): Identification of the bacterial metabolite aerugine as potential trigger of human dopaminergic […]
A The effect of aerugine on respiratory function was analysed in d3 LUHMES cells. The oxygen consumption rate of the individual technical replicates is shown. The oxygen consumption rate is normalised to the last measurement before injection. The injections of aerugine, control and the subsequent assay tool compounds are indicated (FCCP: 1.5 µM; oligomycin: 1 µM; rotenone + antimycin A: 0.5 µM +0.5 µM). B Several parameters were derived from the oxygen consumption rate. The data is presented as means ± SD of four replicates (obtained from one cell batch). Statistical analysis was performed using a one-way ANOVA with Dunnett‘s multiple comparisons test. * = p < 0.0001. C Delp et al. (2019) determined the dependence of LUHMES cells on glycolysis and their mitochondria for ATP production in two different media conditions. […]
mitochondrial metabolism in producing ATP in the two different media. D Aerugine toxicity was assessed in d3 LUHMES cells cultured in glucose and in galactose medium. Cell viability was assessed by calcein-AM & H-33342 staining and automated fluorescence microscopy. Double positive cells were counted as viable, H-33342 mono-positive cells were counted as dead.

## OCC1CSC(c2ccccc2O)=N1 (stereo not shown) [aerugine, 2-[4-(hydroxymethyl)-4,5-dihydro-1,3-thiazol-2-yl]phenol]
[1]
  degeneration of GABA neurons: not affected
[2]
  effect on cell viability: clearly affected by aerugine
5HT2B receptor
  displacement of radioactive lysergic acid diethylamide: displaced radioactive lysergic acid diethylamide at low μM concentrations
d3 LUHMES cells
  toxicity in galactose vs glucose medium: no increased aerugine toxicity was observed
